Laboratory results as given in patent US5061720A, “Substituted-4-thiazolidinone derivatives” (A. H. Robins Company, Inc., priority 1989, dated 1991).

Molecular target: T1, cyclooxygenase (Ovis aries, UniProt P05979)
T1 construct: Lipid-depleted Sheep Seminal Vesicle Microsome Suspension; from tissue; host or cells: sheep seminal vesicle microsomes (lipid-depleted powder, detergent solubilized)
T1 sequence (P05979 25-600): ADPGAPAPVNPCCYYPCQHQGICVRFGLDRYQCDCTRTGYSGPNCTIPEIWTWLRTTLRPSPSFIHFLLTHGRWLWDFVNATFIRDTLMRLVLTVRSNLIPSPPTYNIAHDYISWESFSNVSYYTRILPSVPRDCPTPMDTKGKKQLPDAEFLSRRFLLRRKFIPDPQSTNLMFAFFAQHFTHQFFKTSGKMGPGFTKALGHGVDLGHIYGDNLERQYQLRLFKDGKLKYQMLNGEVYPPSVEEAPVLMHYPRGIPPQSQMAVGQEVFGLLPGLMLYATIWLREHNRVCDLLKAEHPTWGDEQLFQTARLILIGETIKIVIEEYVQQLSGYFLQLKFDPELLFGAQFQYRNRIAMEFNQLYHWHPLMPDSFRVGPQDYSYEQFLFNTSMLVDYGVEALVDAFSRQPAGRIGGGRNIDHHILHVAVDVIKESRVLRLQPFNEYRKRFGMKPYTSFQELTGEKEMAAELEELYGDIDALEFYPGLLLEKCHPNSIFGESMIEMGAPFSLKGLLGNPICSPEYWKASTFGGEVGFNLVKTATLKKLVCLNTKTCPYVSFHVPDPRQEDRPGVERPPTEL
Experiment: Cyclooxygenase Assay (polarigraphic oxygen consumption, lipid-depleted sheep seminal vesicle microsomes)
Format: biochemical
Conditions: 30° C., 2 min incubation, ammonium arachidonate substrate
Method: Cyclooxygenase activity was determined polarigraphically with detergent solubilized, lipid-depleted sheep seminal vesical microsomes. Addition of test articles that inhibit cyclooxygenase, including reference standards, cause a decrease in the rate of oxygen consumption in the reactions. Cyclooxygenase activity is determined using the following procedures:
I. Preparation of Test Materials
1. Lipid-Depleted Sheep Seminal Vesicle Microsomal Powder. This preparation follows the procedure of G. Graff et al. J. Biol. Chem. 253, 7662 (1978).
2. Ammonium Arachidonate Solution. A 250 μL aliquot of 20.0 mM arachidonic acid in absolute ethanol and a 50-μL aliquot of concentrated ammonium hydroxide is placed into a test tube. The solvent and excess ammonium hydroxide is evaporated under a stream of nitrogen at room temperature. The ammonium arachidonate residue is dissolved in 500 μL of 100 mM 2-amino-2-hydroxymethyl-1,3-propanediol hydrochloride (Tris HCl) buffer (pH 8.0) by using a vortex mixer. The final concentration of ammonium arachidonate (working solution) is 10.0 mM.
3. Enzyme Buffer 100 mM Tris HCl (pH 8.0) containing 2.0 mM phenol, 5.0 mM ethylenediaminetetraacetic acid (EDTA), 5.0 mM diethyldithiocarbamic acid and 1.0% Tween 20.
4. Reaction Buffer 100 mM Tris HCl (pH 8.0) containing 2.0 μM hematin and 1.0 mM phenol (prepared daily).
5. Detergent Solubilized Lipid-depleted Sheep Seminal Vesicle Microsome Suspension. Ten mg (solid) of lipid-depleted microsomal powder from sheep seminal vesicles is suspended in 1.0 mL of enzyme buffer and kept at 4° C. until used.
6. Solutions of Test (Formula I compound) or Reference Articles. Test and reference articles are dissolved in the reaction buffer prepared in 4) or a solvent that will not interfere with cyclooxygenase activity, e.g., dimethylsulfoxide, ethanol or acetone.
II. Cyclooxygenase Inhibition Assay
Three mL of the reaction buffer and 20 μL of the microsomal enzyme suspension are placed in a Yellow Springs Instrument (YSI) oxygen chamber where the temperature is maintained at 30° C. by means of a temperature controlled circulating water bath. Aliquots of the solutions containing ≤[…] of Formula I compound (test article) or reference article [see 6) above] are added to the YSI chamber and incubated for 2 minutes. The reaction is initiated by addition of 30 μL of the 10 mM ammonium arachidonate solution and cyclooxygenase activity determined polarigraphically using an oxygen electrode by measuring the rate of oxygen consumption [Cook et al., Anal. Biochem 96 341-51 (1979) and Cook and Lands, Can. J. Biochem. 53, 1220-1231 (1975)].
Test, reference, and control articles were evaluated in triplicate. Cyclooxygenase activity was determined from the slope (mv/unit time) of the recorder tracing with 1 mV being proportional to a 2.34 μM change in oxygen concentration.
The IC50 (concentration of test or reference article that inhibits the reaction by 50%) was calculated from cumulative plots relating the extent of inhibition of cyclooxygenase activity in control group assays to increasing concentrations of test article. Where no inhibition exists, the IC50 is expressed as greater than the highest concentration of the drug tested.

IC50 | SMILES
3.4 µM | CCCCC1SC(c2cccc(Oc3ccccc3)c2)N(CCc2ccccc2)C1=O (stereo not shown) [Example 17, 5-Butyl-2-(3-phenoxyphenyl)-3-(2-phenylethyl)-4-thiazolidinone]
12 µM | CCCC[C@@H]1S[C@@H](c2cccc(Oc3ccccc3)c2)NC1=O (relative stereo) [Example 83, 5-Butyl-2-(3-phenoxyphenyl)-4-thiazolidinone]
0.09 µM | CCCCC1SC(c2cccc(Oc3ccccc3)c2)N(CCCCc2ccccc2)C1=O (stereo not shown) [Example 1, 5-Butyl-2-(3-phenoxyphenyl)-3-(4-phenylbutyl)-4-thiazolidinone]
9.3 µM | CCCCC1SC(c2cccc(Oc3ccccc3)c2)N(CCCCC(=O)O)C1=O (stereo not shown) [Example 45, 5-Butyl-4-oxo-2-(3-phenoxyphenyl)-3-thiazolidinepentanoic acid]
1.4 µM | CC1SC(c2cccc(Oc3ccccc3)c2)N(CCCCc2ccccc2)C1=O (stereo not shown) [Example 7, 5-Methyl-2-(3-phenoxyphenyl)-3-(4-phenylbutyl)-4-thiazolidinone]
0.01 µM | CCCCC1SC(c2cccc(C(=O)c3ccccc3)c2)N(CCCCc2ccccc2)C1=O (stereo not shown) [Example 8, 2-(3-Benzoylphenyl)-5-butyl-3-(4-phenylbutyl)-4-thiazolidinone]
0.26 µM | CCCC[C@@H]1S[C@H](c2cccc(Oc3ccccc3)c2)N(CCCCCC(=O)OCC)C1=O (relative stereo) [Example 51]
